Measured values published in patent US20250213563A1, “SUBSTITUTED PYRIMIDIN-4(3H)-ONES FOR USE IN TREATING CANCER” (NAVIRE PHARMA, INC., priority 2021, published 2025).

Columns and labels:
[1] = system: panel of 419 human kinases; assay: KINOMEscan competition binding panel; settings: 1 μM; 419 kinases tested
Description: (§1) Activity of Compound (10b) (1 μM) was assessed against a panel of 419 human kinases (including a set of disease-relevant mutant variants). Assays were conducted using the KINOMEscan™ platform from DiscoverX which measures compound interaction with kinases using active site-directed competition binding assays. Displacement of ligand binding to the kinase by <35% of the control value is considered significant. Of the 419 kinases tested, only 4 kinases reached this level of displacement: Protein kinase C eta (PRKCH), 34% control; Large tumor suppressor kinase 1 (LATS1), 32% control; General control nonderepressible 2 kinase (GCN2), 21% control; and Hematopoietic Progenitor Kinase 1 (HPK1), 4.4% control.

[2] = system: General control nonderepressible 2 kinase (GCN2); assay: KINOMEscan competition binding; parameters: species or system human; settings: 1 μM
Description: as §1

[3] = biological target: T1, Hematopoietic Progenitor Kinase 1 (HPK1) (Homo sapiens, UniProt Q92918); assay: KINOMEscan competition binding and Kd dose-response
T1 construct: purchased DiscoverX (KINOMEscan platform)
Description: as §1
HPK1 is a hematopoietic cell-restricted serine/threonine kinase and is not expressed in any major organs. HPK1 has been implicated in activation of c-Jun N-terminal kinases (JNK) and genetic disruption of HPK1 is reported to enhance the antitumor immune response of T cells and dendritic cells (Hu et al 1996; Sawasdikosol et al 2012).

[4] = Single-dose pharmacokinetics, C57BL/6 mouse; type: in vivo, mouse (C57BL/6; settings: female, plasma, oral 10 mg/kg, free base
Description: (§2) The pharmacokinetic (PK) parameters of Compound (10b) (freebase) were determined following single intravenous (IV) and oral (PO) administration in female CD-1 mouse, female C57BL/6 mouse (PO only), male Sprague Dawley rat, male Beagle dog, and male Cynomolgus monkey. Additional evaluation of the PK properties of Compound (10b) was obtained following single dose PO administration in female CD-1 mouse, male Sprague Dawley rat and male Beagle dog over a dose range spanning 10 to 300 mg/kg (mouse and rat) and 1 to 100 mg/kg (dog). The intravenous dose solutions were prepared in 20% DMSO-60% PEG400-20% water and the oral dose solutions as suspensions in 0.5% methylcellulose in water, unless otherwise noted. Plasma concentration profiles were generated from serial sampling in individual animals up to 24 hours post dose, except for the studies in mice where composite sampling methods were used (i.e. 3 sampling times per mouse; 9 mice per group). […] Exposures increased with increasing dose level across species, in a dose-proportional manner in mouse and dog, and in a greater than dose-proportional manner in rat (80× increase in AUC with a 30× increase in dosage).

[5] = Single-dose pharmacokinetics, Sprague Dawley rat; type: in vivo, male); settings: for AUC(0-t): read-out: AUC0→24
Description: as §2

HCC827 = assay: 3D cell viability (CellTiter-Glo); type: cell-based; settings: Homo sapiens, 192 h; HCC827, EGFR^Ex19del; 8 days of treatment; read-out: 3D CTG (IC50)
Description: (§3) The potency of Compound (10b) in a panel of human tumor cell lines with active MAPK signaling was assessed. Cell viability in a 3D culture system was assessed by measuring CellTiter-Glo (CTG) luminescence following 8 days of treatment with nine concentrations of Compound (10b). MAPK pathway signaling was assessed by measuring pERK protein levels and DUSP6 mRNA levels by homogeneous time resolved fluorescence (HTRF) and quantitative polymerase chain reaction (qPCR), respectively. […] These viability effects correlated with pERK inhibition (Table 2, FIG. 6B) and DUSP6 inhibition (FIG. 6C).

KYSE-520 = assay: 3D cell viability (CellTiter-Glo); type: cell-based; settings: Homo sapiens, 192 h; KYSE-520, EGFR^amp; 8 days of treatment; read-out: 3D CTG (IC50)
Description: as §3

NCI-H1299 = assay: 3D cell viability (CellTiter-Glo); type: cell-based; settings: Homo sapiens, 192 h; NCI-H1299, NRAS^Q61K; 8 days of treatment; read-out: 3D CTG (IC50)
Description: as §3

NCI-H1975 = assay: 3D cell viability (CellTiter-Glo); type: cell-based; settings: Homo sapiens, 192 h; NCI-H1975, EGFR^L858R/T790M; 8 days of treatment; read-out: 3D CTG (IC50)
Description: as §3

NCI-H358 = assay: 3D cell viability (CellTiter-Glo); type: cell-based; settings: Homo sapiens, 192 h; NCI-H358, KRAS^G12C; 8 days of treatment; read-out: 3D CTG (IC50)
Description: as §3

[6] = male, Sprague Dawley, rat, plasma, IV 0.3 mg/kg, free base
[7] = male, Sprague Dawley, rat, plasma, oral 10 mg/kg, free base

T1 sequence (Q92918 whole entry): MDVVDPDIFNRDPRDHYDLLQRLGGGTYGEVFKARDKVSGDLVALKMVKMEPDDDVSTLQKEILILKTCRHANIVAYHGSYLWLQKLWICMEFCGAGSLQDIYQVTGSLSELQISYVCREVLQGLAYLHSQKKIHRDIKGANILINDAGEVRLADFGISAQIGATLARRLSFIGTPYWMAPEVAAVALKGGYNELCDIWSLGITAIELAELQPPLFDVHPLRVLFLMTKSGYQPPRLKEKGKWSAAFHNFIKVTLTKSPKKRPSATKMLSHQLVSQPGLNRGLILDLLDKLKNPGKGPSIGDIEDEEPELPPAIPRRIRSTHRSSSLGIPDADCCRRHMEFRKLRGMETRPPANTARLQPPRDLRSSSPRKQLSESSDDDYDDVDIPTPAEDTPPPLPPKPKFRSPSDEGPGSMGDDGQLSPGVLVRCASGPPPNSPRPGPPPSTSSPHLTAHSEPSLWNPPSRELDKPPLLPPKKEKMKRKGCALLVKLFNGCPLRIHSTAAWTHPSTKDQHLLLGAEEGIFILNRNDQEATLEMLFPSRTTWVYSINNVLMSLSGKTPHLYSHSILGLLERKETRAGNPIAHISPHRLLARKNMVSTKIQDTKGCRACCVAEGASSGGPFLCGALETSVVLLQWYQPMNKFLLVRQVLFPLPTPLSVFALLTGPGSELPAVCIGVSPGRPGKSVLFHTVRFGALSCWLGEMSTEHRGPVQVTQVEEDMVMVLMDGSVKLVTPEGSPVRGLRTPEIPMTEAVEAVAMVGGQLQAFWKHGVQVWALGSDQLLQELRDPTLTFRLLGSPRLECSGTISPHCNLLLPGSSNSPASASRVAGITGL

## Cc1c(N2CCC3(CC2)CO[C@@H](C)[C@H]3N)nc(C)n(-c2cccc(Cl)c2Cl)c1=O (atropisomer, axis not shown; (Ra)) [Compound (10b), 6-((3S,4S)-4-amino-3-methyl-2-oxa-8-azaspiro[4.5]decan-8-yl)-3-(Ra)-(2,3-dichlorophenyl)-2,5-dimethylpyrimidin-4(3H)-one]
[1]
  number of kinases with displacement <35% of control: 4
[2]
  ligand binding, % control: 21 % control
[3]; 1 μM
  ligand binding, % of control at 1 µM: 4.4%
[3]; dose-response curve
  Kd: 9800 nM
[4]
  Cmax: 5.4 µM
  Tmax: 1 h
[4]; read-out: AUC0→24
  AUC(0-t): 39 µM·h
[5]; [6]
  half-life: 9.18 h
  AUC(0-t): 3.27 µM·h
[5]; male, Sprague Dawley, rat, plasma, IV 0.3 mg/kg, free base, read-out: Clp (converted)
  clearance: 10.2 mL/min/kg
[5]; male, Sprague Dawley, rat, plasma, IV 0.3 mg/kg, free base, read-out: Vdss
  Vd: 6.05 L/kg
[5]; [7]
  Cmax: 3.05 µM
  AUC(0-t): 19.1 µM·h
[5]; male, Sprague Dawley, rat, plasma, oral 10 mg/kg, free base, read-out: Tmax (mean)
  Tmax: 0.92 h
[5]; male, Sprague Dawley, rat, plasma, oral 300 mg/kg, read-out: mean Tmax
  Tmax: ≤ 8 h
[5]; oral 10 mg/kg, free base
  F: 51.2%
[5]; oral, with a 30× increase in dosage (10 to 300 mg/kg)
  increase in AUC: 80 ×
HCC827
  IC50: 1200 nM
KYSE-520
  IC50: 210 nM
NCI-H1299
  IC50: > 25000 nM
NCI-H1975
  IC50: 180 nM
NCI-H358
  IC50: 280 nM
